This is an account of results in patent publication US20260184697A1, “EZH1/2 INHIBITOR, PREPARATION THEREOF, AND USE THEREOF IN ANTI-TUMOR THERAPY” (JIANGSU TASLY DIYI PHARMACEUTICAL CO., LTD., priority 2022, published 2026).

Assay [1] concerns the target T1, EZH2/SUZ/EED (Homo sapiens, UniProt O75530+Q15022+Q15910).
T1 construct: purchased BPS 51003
In words: Inhibitory effect on EZH2 by the MTase-Glo method (Test Example 1). In kind it is biochemical. The following applies: EZH2/SUZ/EED 6.25 nM, H3 peptide 10 μM, SAM 3 μM, 30° C. 3 h, read-out: Test Example 1 WT EZH2 IC50. How it is done: (§1) The compound was dissolved in DMSO, and the compound was serially diluted using ECHO665 and transferred to a 384-well reaction plate (Corning, 3824). A sample containing only DMSO was added as a positive control (maximum signal control) and a negative control (minimum signal control), while ensuring that the final DMSO content in each reaction well was 0.5%. The protein was configured in reaction buffer (50 mM Bicine, 0.01% Triton X-100, 1 mM DTT, 0.01% BSA, pH 7.6), such that the final reaction concentrations of EZH2/SUZ/EED (BPS, 51003) protein solution and EZH1/SUZ/EED (BPS, 51006) were 6.25 nM and 25 nM, respectively. The negative control (minimum signal control) used an equal amount of buffer instead of protein solution. The prepared protein solution was added to the 384-well reaction plate and pre-incubated at room temperature for 15 minutes. The mixture of the substrate H3 peptide fragment (custom-synthesized by GenScript, biotinylated Histone H3(21-44) peptide ([…]-GG-K(Biotin)-OH)) prepared in the reaction buffer and SAM (Promega, V7601) was added into the 384-well plate, such that the final reaction concentration of H3 peptide fragment was 10 μM, and the final concentration of SAM was 3 μM. The mixture was centrifuged at 1000 rpm for 1 min. The 384-well reaction plate was placed in a constant temperature shaker and incubate at 30° C. for 3 h at a speed of 300 rpm. Then the detection reagent was added according to the experimental process of the kit MTase-Glo (Promega, V7601) and incubated.
(§2) After incubation, read with BMG PHERAStar. The luminescence signals obtained by positive control (maximum signal control) and negative control (minimum signal control) were normalized to obtain the inhibition rate of different concentrations of compounds. Then, the IC50 of the compound on the enzyme activity inhibition was calculated by GraphPad Prism 6 with log(inhibitor) vs. response-Variable slope model fitting. The fitting equation is: Y=Bottom+(Top−Bottom)/(1+10^((Log IC50−X)*HillSlope)), wherein Y represents the known percentage remaining enzyme activity, and X represents the known activity after Log compound concentration.

Assay [2] addresses T2, EZH1/SUZ/EED (Homo sapiens, UniProt O75530+Q15022+Q92800).
T2 construct: purchased BPS 51006
Kind of assay: Inhibitory effect on EZH1 by the MTase-Glo method (Test Example 1). The format is biochemical. The following applies: EZH1/SUZ/EED 25 nM, H3 peptide 10 μM, SAM 3 μM, 30° C. 3 h, read-out: Test Example 1 WT EZH1 IC50. On the procedure: as §1, §2

T1 sequence (Q15910 2-746 limits assumed): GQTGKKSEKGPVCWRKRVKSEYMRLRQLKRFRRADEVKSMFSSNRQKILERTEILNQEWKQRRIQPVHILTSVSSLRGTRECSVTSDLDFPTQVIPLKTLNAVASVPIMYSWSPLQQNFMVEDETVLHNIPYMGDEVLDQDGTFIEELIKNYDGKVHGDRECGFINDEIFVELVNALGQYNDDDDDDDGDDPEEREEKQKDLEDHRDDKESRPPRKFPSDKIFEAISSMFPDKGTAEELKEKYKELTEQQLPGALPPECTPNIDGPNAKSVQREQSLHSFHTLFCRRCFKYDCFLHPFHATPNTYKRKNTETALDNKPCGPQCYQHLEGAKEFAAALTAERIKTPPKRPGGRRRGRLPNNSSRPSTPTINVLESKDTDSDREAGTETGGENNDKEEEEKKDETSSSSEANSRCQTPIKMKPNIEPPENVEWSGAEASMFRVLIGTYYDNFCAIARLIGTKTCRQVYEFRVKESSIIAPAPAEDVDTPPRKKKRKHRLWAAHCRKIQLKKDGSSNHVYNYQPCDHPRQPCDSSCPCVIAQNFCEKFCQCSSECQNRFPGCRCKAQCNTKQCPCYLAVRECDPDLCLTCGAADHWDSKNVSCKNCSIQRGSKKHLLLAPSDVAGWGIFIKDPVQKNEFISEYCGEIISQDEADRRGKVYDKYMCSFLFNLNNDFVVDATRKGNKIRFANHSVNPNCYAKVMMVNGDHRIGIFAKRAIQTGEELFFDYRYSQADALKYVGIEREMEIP
T1 sequence (Q15022 2-739 partner limits assumed): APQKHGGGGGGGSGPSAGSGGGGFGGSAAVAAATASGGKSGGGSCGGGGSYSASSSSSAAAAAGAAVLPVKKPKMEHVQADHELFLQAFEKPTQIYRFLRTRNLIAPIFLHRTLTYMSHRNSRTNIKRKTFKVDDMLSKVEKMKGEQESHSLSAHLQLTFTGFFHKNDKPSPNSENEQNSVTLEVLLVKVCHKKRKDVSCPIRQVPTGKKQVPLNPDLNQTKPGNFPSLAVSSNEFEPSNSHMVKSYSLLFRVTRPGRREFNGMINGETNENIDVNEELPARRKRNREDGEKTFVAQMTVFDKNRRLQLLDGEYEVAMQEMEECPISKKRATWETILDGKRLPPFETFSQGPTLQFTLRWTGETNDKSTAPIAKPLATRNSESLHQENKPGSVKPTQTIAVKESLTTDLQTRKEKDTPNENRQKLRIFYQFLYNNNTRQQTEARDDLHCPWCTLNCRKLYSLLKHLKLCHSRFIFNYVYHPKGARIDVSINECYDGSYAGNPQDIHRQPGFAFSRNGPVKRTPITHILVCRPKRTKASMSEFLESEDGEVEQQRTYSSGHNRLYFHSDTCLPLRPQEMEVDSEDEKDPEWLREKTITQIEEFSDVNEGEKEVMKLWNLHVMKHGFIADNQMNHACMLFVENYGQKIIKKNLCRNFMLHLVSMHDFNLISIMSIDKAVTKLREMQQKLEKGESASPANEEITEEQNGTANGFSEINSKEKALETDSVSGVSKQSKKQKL
T1 sequence (O75530 2-441 partner limits assumed): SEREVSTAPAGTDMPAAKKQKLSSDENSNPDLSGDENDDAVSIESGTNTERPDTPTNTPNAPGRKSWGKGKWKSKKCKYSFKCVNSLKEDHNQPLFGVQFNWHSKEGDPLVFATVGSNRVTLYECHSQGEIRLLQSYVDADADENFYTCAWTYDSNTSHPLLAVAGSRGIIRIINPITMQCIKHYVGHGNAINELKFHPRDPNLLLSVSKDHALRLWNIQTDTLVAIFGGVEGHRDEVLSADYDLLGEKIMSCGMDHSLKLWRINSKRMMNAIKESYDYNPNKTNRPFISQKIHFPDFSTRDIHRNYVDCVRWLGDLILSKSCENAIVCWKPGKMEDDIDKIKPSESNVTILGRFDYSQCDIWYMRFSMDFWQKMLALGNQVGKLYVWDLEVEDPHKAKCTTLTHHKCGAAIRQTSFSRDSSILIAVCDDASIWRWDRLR
T2 sequence (Q92800 2-747 limits assumed): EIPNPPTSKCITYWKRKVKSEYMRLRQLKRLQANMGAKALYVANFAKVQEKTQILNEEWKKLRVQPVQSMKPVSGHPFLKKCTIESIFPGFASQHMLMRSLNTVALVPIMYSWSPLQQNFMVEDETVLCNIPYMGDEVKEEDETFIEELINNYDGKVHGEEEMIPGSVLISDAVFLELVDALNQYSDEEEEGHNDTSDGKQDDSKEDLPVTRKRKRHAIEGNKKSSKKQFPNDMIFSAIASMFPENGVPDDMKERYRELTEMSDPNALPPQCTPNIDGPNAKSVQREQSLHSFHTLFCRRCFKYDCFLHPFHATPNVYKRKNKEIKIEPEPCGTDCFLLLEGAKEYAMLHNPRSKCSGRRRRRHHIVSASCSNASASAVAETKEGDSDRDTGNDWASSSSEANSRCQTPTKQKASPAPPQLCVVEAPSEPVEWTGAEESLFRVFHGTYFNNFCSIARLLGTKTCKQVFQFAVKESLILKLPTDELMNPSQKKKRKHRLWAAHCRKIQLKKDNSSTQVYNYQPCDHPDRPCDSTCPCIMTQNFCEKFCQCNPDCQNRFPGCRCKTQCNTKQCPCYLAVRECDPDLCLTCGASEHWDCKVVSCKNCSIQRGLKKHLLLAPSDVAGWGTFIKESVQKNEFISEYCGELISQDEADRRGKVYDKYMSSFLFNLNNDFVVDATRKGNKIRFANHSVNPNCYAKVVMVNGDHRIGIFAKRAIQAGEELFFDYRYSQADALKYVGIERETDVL
T2 sequence (Q15022 2-739 partner limits assumed): as the sequence (Q15022 2-739 partner limits assumed) above
T2 sequence (O75530 2-441 partner limits assumed): as the sequence (O75530 2-441 partner limits assumed) above

`COc1c(Cl)c2c(c(C)c1C(=O)NCc1c(C)cc(C)[nH]c1=O)O[C@@H](C1CCC(N(C)C)CC1)CO2` (mixture of isomers) [Compound 133]: the IC50 in assay [1] was found to be 16.6 nM; in assay [2], 584 nM.

Take `Cc1cc(C)c(CNC(=O)c2cc(Cl)c3c(c2C)OC(C2CCC(NC4CC(F)C4)CC2)CO3)c(=O)[nH]1` (single isomer, unassigned) [Compound 65]: the half-inhibitory concentration (IC50) in assay [1] was found to be 29.7 nM; in assay [2] it was 641 nM.

`Cc1cc(C)c(CNC(=O)c2cc(Cl)c3c(c2C)OC(C2CCC(NC4CC(F)(F)C4)CC2)CO3)c(=O)[nH]1` (single isomer, unassigned) [Compound 66]: the figures for the concentration for half-maximal inhibition (IC50) in assay [1] and in assay [2] were 24.4 nM and 687 nM, respectively.

On to `Cc1cc(C)c(CNC(=O)c2cc(Cl)c3c(c2C)OC(C2CCC(NC4CC(F)(F)C4)CC2)CO3)c(=O)[nH]1` (single isomer, unassigned) [Compound 67], for which the IC50 turned out to be 47.6 nM in assay [1] and 367 nM in assay [2].

As to `COC1(C(F)(F)F)CN(C2CCC(C3COc4c(Cl)cc(C(=O)NCc5c(C)cc(C)[nH]c5=O)c(C)c4O3)CC2)C1` (single isomer, unassigned) [Compound 68], the IC50 in assay [1] was 59.3 nM; in assay [2], over 10000 nM.

Take `COC1(C(F)(F)F)CN(C2CCC(C3COc4c(Cl)cc(C(=O)NCc5c(C)cc(C)[nH]c5=O)c(C)c4O3)CC2)C1` (single isomer, unassigned) [Compound 69]: the figures for the half-inhibitory concentration (IC50) in assay [1] and in assay [2] were 84.6 nM and 879 nM, respectively.

Regarding `Cc1cc(C)c(CNC(=O)c2cc(Cl)c3c(c2C)OC(C2CCC(N4CC(F)C4)CC2)CO3)c(=O)[nH]1` (single isomer, unassigned) [Compound 71], the IC50 came to 41.8 nM in assay [1] and 564 nM in assay [2].

Turning to `CON(C)C1CCC(C2COc3c(Cl)cc(C(=O)NCc4c(C)cc(C)[nH]c4=O)c(C)c3O2)CC1` (single isomer, unassigned) [Compound 79], the IC50 in assay [1] stood at 2 nM.

As for `Cc1cc(C)c(CNC(=O)c2cc(Cl)c3c(c2C)OC(C2CCN(C)CC2)CO3)c(=O)[nH]1` (stereo not shown) [Compound 1], the values for the IC50 in assay [1] and in assay [2] were 27.5 nM and 1300 nM, respectively.

`Cc1cc(C)c(CNC(=O)c2ccc3c(c2C)COC(C)(C2CCC(N(C)C)CC2)O3)c(=O)[nH]1` (stereo not shown) [Compound 4]: the concentration for half-maximal inhibition (IC50) in assay [1] amounted to 7210 nM.

As for `CSc1cc(C)[nH]c(=O)c1CNC(=O)c1cc(Cl)c2c(c1C)O[C@@H]([C@H]1CC[C@H](N3CC(OC4CC4)C3)CC1)CO2` [Compound 10], the IC50 in assay [1] came to 158 nM.

With `CSc1cc(C)[nH]c(=O)c1CNC(=O)c1cc(Cl)c2c(c1C)O[C@H]([C@H]1CC[C@@H](N3CC(OC4CC4)C3)CC1)CO2` [Compound 13], the 50% inhibitory concentration (IC50) in assay [1] was determined as 17.7 nM.

Regarding `[2H]C([2H])([2H])OC1CN([C@H]2CC[C@H]([C@H]3COc4c(Cl)cc(C(=O)NCc5c(SC)cc(C)[nH]c5=O)c(C)c4O3)CC2)C1` [Compound 21], the half-inhibitory concentration (IC50) stood at 6.4 nM in assay [1] and 18.9 nM in assay [2].

As for `CSc1cc(C)[nH]c(=O)c1CNC(=O)c1cc(Cl)c2c(c1C)O[C@H](C1CCN(CC3CC3)CC1)CO2` [Compound 31], the IC50 in assay [1] is 66.3 nM; in assay [2], 491 nM.

With `CO[C@H]1CCN([C@H]2CC[C@@H]([C@H]3COc4c(Cl)cc(C(=O)NCc5c(SC)cc(C)[nH]c5=O)c(C)c4O3)CC2)C1` [Compound 39], the values for the IC50 in assay [1] and in assay [2] were 4 nM and 7.3 nM, respectively.

As to `CO[C@@H]1CCN([C@H]2CC[C@@H]([C@H]3COc4c(Cl)cc(C(=O)NCc5c(SC)cc(C)[nH]c5=O)c(C)c4O3)CC2)C1` [Compound 41], the figures for the IC50 in assay [1] and in assay [2] were 4.3 nM and 3.9 nM, respectively.

Take `COC1C2CN([C@H]3CC[C@H]([C@H]4COc5c(Cl)cc(C(=O)NCc6c(SC)cc(C)[nH]c6=O)c(C)c5O4)CC3)CC21` (stereo partly shown) [Compound 44]: the IC50 in assay [2] was found to be 13.5 nM.

Take `Cc1cc(C)c(CNC(=O)c2cc(Cl)c3c(c2C)O[C@H]([C@H]2CC[C@H](N4CC5COCC5C4)CC2)CO3)c(=O)[nH]1` (stereo partly shown) [Compound 72]: the results for the IC50 in assay [1] and in assay [2] were 1250 nM and over 10000 nM, respectively.

Consider `Cc1cc(C)c(CNC(=O)c2cc(Cl)c3c(c2C)O[C@H]([C@H]2CC[C@@H](N4CC5COCC5C4)CC2)CO3)c(=O)[nH]1` (stereo partly shown) [Compound 74], for which the IC50 is 998 nM in assay [1] and over 10000 nM in assay [2].

For `Cc1cc(C)c(CNC(=O)c2cc(Cl)c3c(c2C)OC(C2CCN(C(C)C)CC2)CO3)c(=O)[nH]1` (stereo not shown) [Compound 82], the IC50 in assay [1] was 85.1 nM.

As for `Cc1cc(C)c(CNC(=O)c2cc(Cl)c3c(c2C)OC(C2CCN(CC4COC4)CC2)CO3)c(=O)[nH]1` (stereo not shown) [Compound 83], the IC50 in assay [1] came out at 8.2 nM.

Regarding `Cc1cc(C)c(CNC(=O)c2cc(Cl)c3c(c2C)OC(C2CCN(C4COC4)CC2)CO3)c(=O)[nH]1` (stereo not shown) [Compound 84], in assay [1], the IC50 is 11 nM.

For `Cc1cc(C)c(CNC(=O)c2cc(Cl)c3c(c2C)O[C@H](C2CCN(CC4COC4)CC2)CO3)c(=O)[nH]1` [Compound 87], the half-maximal inhibitory concentration (IC50) in assay [1] was determined as 780 nM.

`Cc1cc(C)c(CNC(=O)c2cc(Cl)c3c(c2C)O[C@H](C2CCN(C4COC4)CC2)CO3)c(=O)[nH]1` [Compound 89]: the IC50 in assay [1] worked out at 1840 nM.

For the compound `Cc1cc(C)c(CNC(=O)c2cc(Cl)c3c(c2C)O[C@@H](C2CCN(CC4CC4)CC2)CO3)c(=O)[nH]1` [Compound 90], the figures for the IC50 in assay [1] and in assay [2] were 18.6 nM and 945 nM, respectively.

For `CON=C1CCC([C@H]2COc3c(Cl)cc(C(=O)NCc4c(C)cc(C)[nH]c4=O)c(C)c3O2)CC1` (stereo partly shown) [Compound 93], the results for the half-maximal inhibitory concentration (IC50) in assay [1] and in assay [2] were 6 nM and 132 nM, respectively.

For `COc1cc(C)[nH]c(=O)c1CNC(=O)c1cc(Cl)c2c(c1C)O[C@@H]([C@H]1CC[C@@H](N3CC4COCC4C3)CC1)CO2` (stereo partly shown) [Compound 95], the IC50 in assay [1] was found to be 11.6 nM; in assay [2], 227 nM.

For `COc1cc(C)[nH]c(=O)c1CNC(=O)c1cc(Cl)c2c(c1C)O[C@H]([C@H]1CC[C@H](N3CC(OC)C3)CC1)CO2` [Compound 99], the IC50 in assay [1] was 93.4 nM.

Consider `COc1cc(C)[nH]c(=O)c1CNC(=O)c1cc(Cl)c2c(c1C)O[C@H]([C@H]1CC[C@@H](N3CC(OC)C3)CC1)CO2` [Compound 100], for which the IC50 in assay [1] stood at 128 nM.

In the case of `COc1cc(C)[nH]c(=O)c1CNC(=O)c1cc(Cl)c2c(c1C)O[C@@H]([C@H]1CC[C@H](N3CC4(CC4)C3)CC1)CO2` [Compound 112], the IC50 in assay [2] worked out at 49.9 nM.

As to `COc1cc(C)[nH]c(=O)c1CNC(=O)c1cc(Cl)c2c(c1C)O[C@@H]([C@H]1CC[C@H](N3CC4CC4C3)CC1)CO2` (stereo partly shown) [Compound 114], in assay [2], the IC50 was 267 nM.

On to `COc1cc(C)[nH]c(=O)c1CNC(=O)c1cc(Cl)c2c(c1C)O[C@@H]([C@H]1CC[C@H](N3CC4C(C3)C4OC)CC1)CO2` (stereo partly shown) [Compound 116], for which the IC50 in assay [2] is 156 nM.

In the case of `COc1cc(C)[nH]c(=O)c1CNC(=O)c1cc(Cl)c2c(c1C)O[C@@H](C1CCC(OCCF)CC1)CO2` (stereo partly shown) [Compound 123], in assay [2], the IC50 was found to be 84 nM.

Turning to `Cc1cc(C)c(CN(C)C(=O)c2cc(Cl)c3c(c2C)O[C@@H]([C@H]2CC[C@@H](N(C)C)CC2)CO3)c(=O)[nH]1` [Compound 127], the IC50 in assay [1] amounted to 25.5 nM.

In the case of `COc1cc(C)[nH]c(=O)c1CN(C)C(=O)c1cc(Cl)c2c(c1C)O[C@@H]([C@H]1CC[C@@H](N(C)C)CC1)CO2` [Compound 129], the 50% inhibitory concentration (IC50) in assay [1] worked out at 3.9 nM.

Take `COc1cc(C)[nH]c(=O)c1CNC(=O)c1cc(Cl)c2c(c1Cl)O[C@@H]([C@H]1CC[C@H](N3CC(OC)C3)CC1)CO2` [Compound 152]: the half-maximal inhibitory concentration (IC50) in assay [2] came out at 126 nM.

Take `Cc1cc(C2CC2)c(CNC(=O)c2cc(Cl)c3c(c2C)O[C@@H]([C@H]2CC[C@@H](N(C)C)CC2)CO3)c(=O)[nH]1` [Compound 157]: in assay [2], the IC50 was 190 nM.

Take `Cc1cc(C2CC2)c(CNC(=O)c2cc(Cl)c3c(c2C)O[C@@H]([C@H]2CC[C@H](N(C)C)CC2)CO3)c(=O)[nH]1` [Compound 158]: the half-inhibitory concentration (IC50) in assay [2] was found to be 3440 nM.

For the compound `CSc1cc(C)[nH]c(=O)c1CNC(=O)c1cc(C#N)c2c(c1C)O[C@@H]([C@H]1CC[C@H](N3CC(OC4CC4)C3)CC1)CO2` [Compound 160], in assay [2], the IC50 amounted to 31.6 nM.

Regarding `CSc1cc(C)[nH]c(=O)c1CNC(=O)c1cc(C#N)c2c(c1C)O[C@@H]([C@H]1CC[C@H](N3CC(OCCF)C3)CC1)CO2` [Compound 162], the IC50 in assay [2] worked out at 29.3 nM.

Turning to `[2H]C([2H])([2H])Sc1cc(C)[nH]c(=O)c1CNC(=O)c1cc(Cl)c2c(c1C)O[C@@H](C1CCC(N3CC(OC)C3)CC1)CO2` (stereo partly shown) [Compound 178], the IC50 in assay [2] was 17.5 nM.

As usually defined, the IC50 is the concentration at which inhibition is half-maximal.
